Measurements: ChEMBL document CHEMBL1135211, “Non-covalent thrombin inhibitors featuring P3-heterocycles with P1-bicyclic arginine surrogates” (Bioorg Med Chem Lett, 2002)

Assays:
[1] = Ionisation constant (pKa); assay type: physicochemical
[2] = in vivo; conditions: dog, po, 1 mg/kg
[3] = in vivo; conditions: dog, po, 1 mg/kg; remark: listed apart in the source
[4] = Cmax in dog plasma after oral dose (1 mg/kg); assay type: ADME, organism-based, Canis lupus familiaris; parameters: dose 1 mg/kg, route oral
[5] = molecular target: Prothrombin (Homo sapiens, UniProt P00734); assay: In vitro inhibitory activity against human Thrombin (FIIa) cleavage of the chromogenic substrate

## Cc1cnc(NCC(F)(F)c2ccccc2)c(=O)n1CC(=O)NCc1ccc2c(N)noc2c1
[1]
  pKa: 8.6
[2]
  half-life: 3.28 h
[3]; plasma
  AUC: 6030 ng·h/mL
[4]
  Cmax: 1200 ng/mL
[5]
  Ki: 0.0025 µM

## Cc1ccc(NS(=O)(=O)Cc2ccccc2)c(=O)n1CC(=O)NCc1ccc2[nH]ncc2c1
[2]
  half-life: 0.6 h
[3]; plasma
  AUC: 515 ng·h/mL
[4]
  Cmax: 410 ng/mL
[5]
  Ki: 0.0087 µM

## Cc1n[nH]c2ccc(CNC(=O)Cn3c(C)cnc(NCCc4ccccc4)c3=O)cc12
[5]
  Ki: 0.444 µM

## Cc1cnc(NCC2(c3ccccn3)CC2)c(=O)n1CC(=O)NCc1ccc2c(N)noc2c1
[1]
  pKa: 8.6
[2]
  half-life: 1.67 h
[3]; plasma
  AUC: 2230 ng·h/mL
[4]
  Cmax: 770 ng/mL
[5]
  Ki: 0.0259 µM

## Cc1cnc(NCC(c2ccccc2)c2ccccc2)c(=O)n1CC(=O)NCc1ccc2c(N)noc2c1
[1]
  pKa: 8.6
[2]
  half-life: 4.17 h
[3]; plasma
  AUC: 2200 ng·h/mL
[4]
  Cmax: 300 ng/mL
[5]
  Ki: 0.031 µM

## Cc1nc2cc(CNC(=O)Cn3c(C)cnc(NCCc4ccccc4)c3=O)ccc2[nH]1
[1]
  pKa: 6.4
[5]
  Ki: > 3.97 µM

## Cc1cnc(NC[C@@H](C)c2ccccc2)c(=O)n1CC(=O)NCc1ccc2[nH]cnc2c1
[1]
  pKa: 5.8
[2]
  half-life: 1.15 h
[3]; plasma
  AUC: 1010 ng·h/mL
[4]
  Cmax: 480 ng/mL
[5]
  Ki: 0.0093 µM

## CCc1cnc(NCCc2ccccc2)c(=O)n1CC(=O)NCc1ccc2[nH]ccc2c1
[2]
  half-life: 1.4 h
[3]; plasma
  AUC: 523 ng·h/mL
[4]
  Cmax: 310 ng/mL
[5]
  Ki: 0.0237 µM

## COc1cccc(S(=O)(=O)Nc2cccn(CC(=O)NCc3ccc4c(N)[nH]nc4c3)c2=O)c1
[1]
  pKa: 3.8
[2]
  half-life: 1.85 h
[3]; plasma
  AUC: 1040 ng·h/mL
[4]
  Cmax: 350 ng/mL

## Cc1cnc(NCCc2ccccc2)c(=O)n1CC(=O)NCc1ccc2nc(N)sc2c1
[1]
  pKa: 7.5
[5]
  Ki: > 3.97 µM

## COc1ccc(CCNc2ncc(C)n(CC(=O)NCc3ccc4[nH]cnc4c3)c2=O)cc1
[1]
  pKa: 5.8
[2]
  half-life: 1.52 h
[3]; plasma
  AUC: 458 ng·h/mL
[4]
  Cmax: 190 ng/mL
[5]
  Ki: 0.005 µM

## Cc1cnc(NCCc2ccccc2)c(=O)n1CC(=O)NCc1ccc2[nH]cnc2c1
[1]
  pKa: 5.8
[2]
  half-life: 1.77 h
[3]; plasma
  AUC: 1630 ng·h/mL
[4]
  Cmax: 390 ng/mL

## Cc1cnc(NCCc2ccccn2)c(=O)n1CC(=O)NCc1ccc2[nH]ncc2c1
[5]
  Ki: 0.0031 µM

## Cc1cnc(NCCc2ccccc2)c(=O)n1CC(=O)NCc1ccc2[nH]ncc2c1
[5]
  Ki: 0.0184 µM

## Cc1ccc(NS(=O)(=O)c2ccc3c(c2)CCO3)c(=O)n1CC(=O)NCc1ccc2c[nH]nc2c1
[5]
  Ki: 1.32 µM

## Cc1cnc(NCCc2ccccc2)c(=O)n1CC(=O)NCc1ccc2[nH]nc(O)c2c1
[1]
  pKa: 6.3
[3]; plasma
  AUC: 18.3 ng·h/mL
[4]
  Cmax: 30 ng/mL
[5]
  Ki: 0.033 µM

## Cc1cnc(NCCc2ccc3c(c2)CCO3)c(=O)n1CC(=O)NCc1ccc2[nH]ncc2c1
[5]
  Ki: 0.0029 µM

## Cc1ccc(NS(=O)(=O)Cc2ccc(Br)cc2)c(=O)n1CC(=O)NCc1ccc2c(N)noc2c1
[1]
  pKa: 8.6
[2]
  half-life: 1.82 h
[3]; plasma
  AUC: 5470 ng·h/mL
[4]
  Cmax: 1520 ng/mL
[5]
  Ki: 0.0222 µM

## Cc1ccc(NS(=O)(=O)c2ccc3c(c2)CCO3)c(=O)n1CC(=O)NCc1ccc2[nH]nc(N)c2c1
[1]
  pKa: 3.6
[2]
  half-life: 1.2 h
[3]; plasma
  AUC: 298 ng·h/mL
[4]
  Cmax: 230 ng/mL
[5]
  Ki: 0.0287 µM

## COc1ccc(C2(CNc3ncc(C)n(CC(=O)NCc4ccc5[nH]nc(N)c5c4)c3=O)CC2)cc1
[1]
  pKa: 3.6
[2]
  half-life: 1.48 h
[3]; plasma
  AUC: 3270 ng·h/mL
[4]
  Cmax: 1370 ng/mL
[5]
  Ki: 0.009 µM

## Cc1ccc(NS(=O)(=O)Cc2ccccc2)c(=O)n1CC(=O)NCc1ccc2c(N)[nH]nc2c1
[1]
  pKa: 3.8
[2]
  half-life: 1.4 h
[3]; plasma
  AUC: 1310 ng·h/mL
[4]
  Cmax: 580 ng/mL
[5]
  Ki: 0.224 µM

## Cc1ccc(NS(=O)(=O)Cc2ccccc2)c(=O)n1CC(=O)NCc1ccc2onc(N)c2c1
[1]
  pKa: 8.2
[2]
  half-life: 2.2 h
[3]; plasma
  AUC: 630 ng·h/mL
[4]
  Cmax: 240 ng/mL

## Cc1cnc(NC[C@H](C)c2ccccc2)c(=O)n1CC(=O)NCc1ccc2[nH]ncc2c1
[5]
  Ki: 0.0057 µM

## Cc1ccc(NS(=O)(=O)Cc2ccccc2)c(=O)n1CC(=O)NCc1ccc2c(N)noc2n1
[1]
  pKa: 4.7
[2]
  half-life: 0.6 h
[3]; plasma
  AUC: 237 ng·h/mL
[4]
  Cmax: 280 ng/mL
[5]
  Ki: 0.203 µM

## Cc1cnc(NCCc2ccccc2)c(=O)n1CC(=O)NCc1ccc2[nH]nc(N)c2c1
[1]
  pKa: 3.6
[2]
  half-life: 2.77 h
[3]; plasma
  AUC: 4850 ng·h/mL
[4]
  Cmax: 1030 ng/mL

## Cc1cnc(NCCc2ccccc2)c(=O)n1CC(=O)NCc1ccc2[nH]nnc2c1
[5]
  Ki: 0.224 µM

## COc1cccc(CCNc2ncc(C)n(CC(=O)NCc3ccc4[nH]ncc4c3)c2=O)c1
[5]
  Ki: 0.0104 µM

## Cc1ccc(NS(=O)(=O)Cc2ccccc2)c(=O)n1CC(=O)NCc1ccc2c(N)[nH]nc2n1
[1]
  pKa: 6.7
[5]
  Ki: 1.59 µM

## Cc1ccc(NS(=O)(=O)Cc2ccc(Cl)cc2)c(=O)n1CC(=O)NCc1ccc2[nH]cnc2c1
[1]
  pKa: 5.8
[2]
  half-life: 1.15 h
[3]; plasma
  AUC: 202 ng·h/mL
[4]
  Cmax: 170 ng/mL
[5]
  Ki: 0.0065 µM

## Cc1cnc(NCC2(c3ccc(F)cc3)CC2)c(=O)n1CC(=O)NCc1ccc2c(N)noc2c1
[1]
  pKa: 8.6
[2]
  half-life: 2.17 h
[3]; plasma
  AUC: 3150 ng·h/mL
[4]
  Cmax: 850 ng/mL
[5]
  Ki: 0.0155 µM

## Cc1cc2cn[nH]c2cc1CNC(=O)Cn1c(C)ccc(NS(=O)(=O)Cc2ccccc2)c1=O
[1]
  pKa: 4
[5]
  Ki: 0.271 µM

## Cc1cnc(NCC2(c3ccccc3)CCC2)c(=O)n1CC(=O)NCc1ccc2[nH]nc(O)c2c1
[1]
  pKa: 6.3
[5]
  Ki: 0.01 µM

## Cc1cnc(NCCc2ccc3c(c2)CCC3)c(=O)n1CC(=O)NCc1ccc2[nH]ccc2c1
[5]
  Ki: 0.0298 µM

## Cc1cnc(NCC(F)(F)c2ccccc2)c(=O)n1CC(=O)NCc1ccc2[nH]nc(N)c2c1
[1]
  pKa: 3.6
[2]
  half-life: 3.63 h
[3]; plasma
  AUC: 5930 ng·h/mL
[4]
  Cmax: 960 ng/mL
[5]
  Ki: 0.0041 µM

## Cc1cnc(NCC2(c3ccc(F)cc3)CC2)c(=O)n1CC(=O)NCc1ccc2[nH]nc(N)c2c1
[1]
  pKa: 3.6
[2]
  half-life: 2.07 h
[3]; plasma
  AUC: 2950 ng·h/mL
[4]
  Cmax: 880 ng/mL
[5]
  Ki: 0.0154 µM

## Cc1cnc(NCCc2ccccc2)c(=O)n1CC(=O)NCc1ccc2c(N)noc2c1
[1]
  pKa: 8.6
[2]
  half-life: 2.52 h
[3]; plasma
  AUC: 3950 ng·h/mL
[4]
  Cmax: 1030 ng/mL
[5]
  Ki: 0.0822 µM

## COc1cccc(S(=O)(=O)Nc2cccn(CC(=O)NCc3ccc4[nH]nc(N)c4c3)c2=O)c1
[1]
  pKa: 3.6
[2]
  half-life: 4.57 h
[3]; plasma
  AUC: 3950 ng·h/mL
[4]
  Cmax: 930 ng/mL
[5]
  Ki: 0.325 µM

## Cc1cnc(NCCc2ccc(F)cc2)c(=O)n1CC(=O)NCc1ccc2c(N)noc2c1
[1]
  pKa: 8.6
[2]
  half-life: 4.35 h
[3]; plasma
  AUC: 4680 ng·h/mL
[4]
  Cmax: 640 ng/mL
[5]
  Ki: 0.0176 µM

## Cc1cnc(NCCc2ccc3c(c2)CCC3)c(=O)n1CC(=O)NCc1ccc2c(ccn2N)c1
[1]
  pKa: 7.4
[5]
  Ki: 12.4 µM

## Cc1ccc(NS(=O)(=O)Cc2ccccc2)c(=O)n1CC(=O)NCc1ccc2[nH]nc(N)c2c1
[1]
  pKa: 3.6
[5]
  Ki: 0.0729 µM

## Cc1ccc(NS(=O)(=O)c2ccc3c(c2)CCO3)c(=O)n1CC(=O)NCc1ccc2[nH]ncc2c1
[5]
  Ki: 0.0039 µM

## Cc1ccc(NS(=O)(=O)Cc2ccccc2)c(=O)n1CC(=O)NCc1ccc2c(N)noc2c1
[1]
  pKa: 8.6
[2]
  half-life: 1.55 h
[3]; plasma
  AUC: 3680 ng·h/mL
[4]
  Cmax: 1600 ng/mL
[5]
  Ki: 0.0743 µM

## Cc1cnc(NCC2(c3ccccc3)CCC2)c(=O)n1CC(=O)NCc1ccc2c(N)noc2c1
[1]
  pKa: 8.6
[2]
  half-life: 1.95 h
[3]; plasma
  AUC: 2150 ng·h/mL
[4]
  Cmax: 620 ng/mL
[5]
  Ki: 0.0102 µM

## Cc1cnc(NCCc2ccccc2)c(=O)n1CC(=O)NCc1ccc2cn[nH]c2c1
[2]
  half-life: 0.417 h
[3]; plasma
  AUC: 2200 ng·h/mL
[4]
  Cmax: 960 ng/mL

## Cc1nc(N)ccc1CNC(=O)Cn1c(C)ccc(NS(=O)(=O)Cc2ccccc2)c1=O [L-374087]
[2]
  half-life: 1.78 h
[3]; in vivo
  AUC: 2670 ng·h/mL
[4]
  Cmax: 790 ng/mL
[5]
  Ki: 0.0007 µM

## Cc1nc(N)ccc1CNC(=O)Cn1c(C)cnc(NCCc2ccccc2)c1=O [L-375378]
[2]
  half-life: 3.32 h
[3]; in vivo
  AUC: 4580 ng·h/mL
[4]
  Cmax: 900 ng/mL
[5]
  Ki: 0.001 µM
